Assay results as given in patent publication US6831079B1, “Vasopressin agonist formulation and process” (American Cyanamid Company, priority 1999, dated 2004).

How the values were obtained:
Vasopressin V2 [1] = target: T1, Vasopressin V2 (Rattus norvegicus, UniProt Q00788); assay: Vasopressin V2 agonist effects in normal conscious homozygous Brattleboro rats with central diabetes insipidus; assay type: in vivo; design: from tissue; host or cells: whole living homozygous Brattleboro rat; the receptor is the animal's own; details: Brattleboro (BB) rats, 10 mg/kg oral; for Osmolality (% Increase): change in osmolality as percent of control; for Urine Volume (% decrease): vs. control, urine collected six hours
T1 sequence (Q00788 whole entry): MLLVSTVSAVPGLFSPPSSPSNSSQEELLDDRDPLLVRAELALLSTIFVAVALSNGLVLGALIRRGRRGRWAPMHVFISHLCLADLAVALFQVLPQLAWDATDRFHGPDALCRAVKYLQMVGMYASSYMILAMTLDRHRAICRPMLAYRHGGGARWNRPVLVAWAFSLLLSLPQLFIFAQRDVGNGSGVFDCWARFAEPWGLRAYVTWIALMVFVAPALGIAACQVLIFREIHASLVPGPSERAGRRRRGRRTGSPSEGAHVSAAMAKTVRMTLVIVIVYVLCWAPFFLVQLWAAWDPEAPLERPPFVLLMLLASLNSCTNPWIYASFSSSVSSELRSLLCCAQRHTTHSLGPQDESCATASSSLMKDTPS
Excerpt: Vasopressin V2 Agonist Effects of Test Compounds in Normal Conscious Homozygous Brattleboro Rats with Central Diabetes Insipidus
Male or female homozygous Brattleboro rats (Harlan Sprague Dawley, Inc., Indianapolis, Ind.) of 250-350 g body weight were supplied with standard rodent diet (Purina Rodent Lab. Chow 5001) and water ad libitum. On the day of test, rats were placed individually into metabolic cages equipped with devices to separate the feces from the urine and containers for collection of urine. Test compound or reference agent was given at an oral dose of 1 to 10 mg/kg in a volume of 10 ml/kg. The vehicle used was 20% dimethylsulfoxide (DMSO) in 2.5% preboiled corn starch. During the test, rats were provided with water ad libitum. Urine was collected for six hours after dosing of the test compound. At the end of six hours, urine volume was measured. Urinary osmolality was determined using a Fiske One-Ten Osmometer (Fiske Associates, Norwood, Mass., 02062) or an Advanced CRYOMATIC Osmometer, Model 3C2 (Advanced Instruments, Norwood, Mass.). Determinations of Na^+, K^+ and Cl^− ion were carried out using ion specific electrodes in a Beckman SYNCHRON EL-ISE Electrolyte System analyzer. This animal model was mainly used for evaluation of potency and duration of action of the active compounds.

Vasopressin V2 [2] = target: T1, Vasopressin V2; assay: Vasopressin V2 agonist effects in normal conscious water-loaded rats; assay type: in vivo; design: from tissue; host or cells: whole living Sprague-Dawley rat; the receptor is the animal's own (renal, by own knowledge); details: Sprague-Dawley (CD) rats, 10 mg/kg oral; for Osmolality (% Increase): change in osmolality as percent of control; for Urine Volume (% decrease): vs. control, urine collected four hours
Excerpt: Vasopressin V2 Agonist Effects of Test Compounds in Normal Conscious Water-loaded Rats
Male or female normotensive Sprague-Dawley rats (Charles River Laboratories, Inc., Kingston, N.Y.) of 350-500 g body weight were supplied with standard rodent diet (Purina Rodent Lab. Chow 5001) and water ad libitum. On the day of test, rats were placed individually into metabolic cages equipped with devices to separate the feces from the urine and containers for collection of urine. […] The vehicle used was 20% dimethylsulfoxide (DMSO) in 2.5% preboiled corn starch. Thirty minutes after dosing the test compound, rats were gavaged with water at 30 ml/kg into the stomach using a feeding needle. During the test, rats were not provided with water or food. Urine was collected for four hours after dosing of the test compound. At the end of four hours, urine volume was measured. Urinary osmolality was determined using a Fiske One-Ten Osmometer (Fiske Associates, Norwood, Mass., 02062) or an Advanced CRYOMATIC Osmometer, Model 3C.2 (Advanced Instruments, Norwood, Mass.). Determinations of Na^+, K^+ and Cl^− ion were carried out using ion specific electrodes in a Beckman SYNCHRON EL-ISE Electrolyte System analyzer. The urinary osmolality should increase proportionally. In the screening test, two rats were used for each compound. If the difference in the urine volume of the two rats was greater than 50%, a third rat was used.

Osmolality (% Increase) (Vasopressin V2 [1])	Urine Volume (% decrease) (Vasopressin V2 [1])	melting point	Osmolality (% Increase) (Vasopressin V2 [2])	Urine Volume (% decrease) (Vasopressin V2 [2])	SMILES
334%	81%	–	–	–	CC(=O)n1ccc(-c2ccc(C(=O)N3Cc4cccn4Cc4ccccc43)cc2)n1 [Example 30, 1-{3-[4-(5H,11H-Pyrrolo[2,1-c][1,4]benzodiazepine-10-carbonyl)-phenyl]-pyrazol-1-yl}-ethanone]
407%	76%	–	–	–	O=C(c1ccc(-c2ccn(C(=O)c3cccs3)n2)cc1)N1Cc2cccn2Cc2ccccc21 [Example 34, (5H,11-Pyrrolo[2,1-c][1,4]benzodiazepin-10-yl)-{4-[1-(thiophene-2-carbonyl)-1H-pyrazoly-3-yl]phenyl}-methanone]
164%	66%	170 to 173 °C	–	–	Cc1ccccc1C(=O)n1ccc(-c2ccc(C(=O)N3Cc4cccn4Cc4ccccc43)cc2)n1 [Example 36, {4-[1-(2-Methyl-benzoyl)-1H-pyrazol-3-yl]-phenyl}-(5H,11H-pyrrolo[2,1-c][1,4]benzodiazepin-10-yl)-methanone]
256%	66%	180 to 182 °C	–	–	O=C(c1ccc(-c2ccn(C(=O)c3ccc(Cl)cc3Cl)n2)cc1)N1Cc2cccn2Cc2ccccc21 [Example 38, {4-[1-(2,4-Dichloro-benzoyl)-1H-pyrazol-3-yl]-phenyl}-(5H,11H-pyrrolo[2,1-c][1,4]benzodiazepin-10-yl)-methanone]
–	–	200 to 201 °C	164%	80%	Cn1cc(-c2ccc(C(=O)N3Cc4cccn4Cc4ccccc43)cc2)cn1 [Example 55, [4-(1-Methyl-1H-pyrazol-4-yl)-phenyl]-(5H,11H-pyrrolo[2,1-c][1,4]-benzodiazepin-10-yl)-methanone]
–	–	173 to 175 °C	288%	77%	Cn1cc(-c2ccc(C(=O)N3Cc4cccn4Cc4ccccc43)cn2)cn1 [Example 57, [6-(1-Methyl-1H-pyrazol-4-yl)-pyridin-3-yl]-(5H,11H-pyrrolo[2,1-c][1,4]-benzodiazepin-10-yl)-methanone]
–	–	179 to 181 °C	165%	54%	Cc1cnn(-c2ccc(C(=O)N3Cc4cccn4Cc4ccccc43)cc2)c1 [Example 60, [4-(4-Methyl-pyrazol-1-yl)-phenyl]-(5H,11H-pyrrolo[2,1-c][1,4]-benzodiazepin-10-yl)-methanone]
–	–	166 to 167 °C	150%	22%	O=C(c1ccc(-n2ccc(C(F)(F)F)n2)cc1)N1Cc2cccn2Cc2ccccc21 [Example 62, (5H,11H-Pyrrolo[2,1-c][1,4]benzodiazepin-10-yl)-[4-(3-trifluoromethyl-pyrazol-1-yl)-phenyl]-methanone]
–	–	140 to 145 °C	349%	79%	Cc1cn(-c2ccc(C(=O)N3Cc4cccn4Cc4ccccc43)cc2)cn1 [Example 64, [4-(4-Methyl-imidazol-1-yl)-phenyl]-(5H,11H-pyrrolo[2,1-c][1,4]-benzodiazepin-10-yl)-methanone]
–	–	148.5 to 150 °C	264%	84%	Cn1ccc(-c2ccc(C(=O)N3Cc4cccn4Cc4ccccc43)c(Cl)c2)n1 [Example 71, [2-Chloro-4-(1-methyl-1H-pyrazol-3-yl)-phenyl]-(5H,11H-pyrrolo[2,1-c]-[1,4]benzodiazepine-10-yl)-methanone]
–	–	198 to 199 °C	115%	21%	O=C(O)c1ccc(C(=O)N2Cc3cccn3Cc3ccccc32)c(Cl)c1 [Example 78, 3-Chloro-4-(5H,11H-Pyrrolo[2,1-c][1,4]benzodiazepine-10-carbonyl)-benzoic Acid]
–	–	211 to 212 °C	123%	38%	NC(=O)c1ccc(C(=O)N2Cc3cccn3Cc3ccccc32)c(Cl)c1 [Example 79, 3-Chloro-4-(5H,11H-pyrrolo[2,1-c][1,4]benzodiazepine-10-carbonyl)-benzamide]
–	–	174 to 177 °C	442%	85%	O=C(c1ccc(-c2ncn[nH]2)cc1Cl)N1Cc2cccn2Cc2ccccc21 [Example 83, [2-Chloro-4-(2H-1,2,4-triazol-3-yl)-phenyl]-(5H,11H-pyrrolo[2,1-c][1,4]-benzodiazepin-10-yl)-methanone]
–	–	218 to 220 °C	86%	5%	O=C(c1ccc(-c2nnn[nH]2)cc1Cl)N1Cc2cccn2Cc2ccccc21 [Example 86, [2-Chloro-4-(1H-tetrazol-5-yl)-phenyl]-(5H,11H-pyrrolo[2,1-c][1,4]benzodiazepin-10-yl)-methanone]
–	–	100 to 102 °C	214%	71%	Cc1ccn(-c2ccc(C(=O)N3Cc4ccc(CN(C)C)n4Cc4ccccc43)c(Cl)c2)n1 [Example 87, [2-Chloro-4-(3-methyl-pyrazol-1-yl)-phenyl]-(3-dimethylaminomethyl-5H,11H-pyrrolo[2,1-c][1,4]benzodiazepin-10-yl)-methanone]
–	–	148 to 149 °C (dec.)	226%	68%	Cc1ccn(-c2ccc(C(=O)N3Cc4ccc(Br)n4Cc4ccccc43)c(Cl)c2)n1 [Example 88, (3-Bromo-5H,11H-pyrrolo[2,1-c][1,4]benzodiazepin-10-yl)-[2-chloro-4-(3-methyl-pyrazol-1-yl)-phenyl]-methanone]
–	–	192 to 193 °C	454%	69%	Cc1ccn(-c2ccc(C(=O)N3Cc4cccn4Cc4ccccc43)c(F)c2)n1 [Example 92, [2-Fluoro-4-(3-methyl-pyrazol-1-yl)-phenyl]-(5H,11H-pyrrolo[2,1-c][1,4]-benzodiazepin-10-yl)-methanone]
–	–	192 to 193 °C	106%	3%	Cc1ccn(-c2ccc(C(=O)O)c(Cl)c2)n1 [Example 97, 2-Chloro-4-(3-methyl-1H-pyrazol-1-yl)-benzoic Acid]
–	–	133 to 135 °C	205%	43%	O=C(c1ccc(-n2cccn2)nc1Cl)N1Cc2cccn2Cc2ccccc21 [Example 99, (2-Chloro-6-pyrazol-1-yl-pyridin-3-yl)-(5H,11H-pyrrolo[2,1-c][1,4]benzodiazepin-10-yl)-methanone]
–	–	171 to 172 °C	248%	24%	Cc1ccn(-c2ccc(C(=O)N3Cc4cccn4Cc4ccccc43)c(Cl)n2)n1 [Example 100, [2-Chloro-6-(3-methylpyrazol-1-yl)-pyridin-3-yl]-(5H,11H-pyrrolo[2,1-c][1,4]benzodiazepin-10-yl)-methanone]
–	–	155 to 156 °C	376%	76%	Cc1cnn(-c2ccc(C(=O)N3Cc4cccn4Cc4ccccc43)c(Cl)n2)c1 [Example 101, [2-Chloro-6-(4-methylpyrazol-1-yl)-pyridin-3-yl](5H,11H-pyrrolo[2,1-c][1,4]benzodiazepin-10-yl)-methanone]
–	–	98 to 100 °C	155%	22%	CC(=O)c1ccc(C(=O)N2Cc3cccn3Cc3ccccc32)c(Cl)c1 [Example 121, 1-[4-(5H,11H-pyrrolo[2,1-c][1,4]benzodiazepine-10-carbonyl)-3-chlorophenyl]-ethanone]
